Target: T1, c-Met kinase (recombinant c-Met) (Homo sapiens, UniProt P08581)
T1 construct: 0.27 nM recombinant c-Met
Experiment: In vitro kinase assay I (homogeneous time-resolved fluorescence tyrosine kinase assay)
Format: biochemical
Method in brief: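 Biotinylated peptide (0.5 μM) phosphorylated by 0.2 nM recombinant c-Met with 50 μM MgATP, 60 min at room temperature, pH 7.4, 5% DMSO. EDTA stop; HTRF read with Eu-anti-phosphotyrosine antibody and streptavidin-APC. IC50 from 4-parameter logistic fit.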

T1 sequence (P08581 25-1390): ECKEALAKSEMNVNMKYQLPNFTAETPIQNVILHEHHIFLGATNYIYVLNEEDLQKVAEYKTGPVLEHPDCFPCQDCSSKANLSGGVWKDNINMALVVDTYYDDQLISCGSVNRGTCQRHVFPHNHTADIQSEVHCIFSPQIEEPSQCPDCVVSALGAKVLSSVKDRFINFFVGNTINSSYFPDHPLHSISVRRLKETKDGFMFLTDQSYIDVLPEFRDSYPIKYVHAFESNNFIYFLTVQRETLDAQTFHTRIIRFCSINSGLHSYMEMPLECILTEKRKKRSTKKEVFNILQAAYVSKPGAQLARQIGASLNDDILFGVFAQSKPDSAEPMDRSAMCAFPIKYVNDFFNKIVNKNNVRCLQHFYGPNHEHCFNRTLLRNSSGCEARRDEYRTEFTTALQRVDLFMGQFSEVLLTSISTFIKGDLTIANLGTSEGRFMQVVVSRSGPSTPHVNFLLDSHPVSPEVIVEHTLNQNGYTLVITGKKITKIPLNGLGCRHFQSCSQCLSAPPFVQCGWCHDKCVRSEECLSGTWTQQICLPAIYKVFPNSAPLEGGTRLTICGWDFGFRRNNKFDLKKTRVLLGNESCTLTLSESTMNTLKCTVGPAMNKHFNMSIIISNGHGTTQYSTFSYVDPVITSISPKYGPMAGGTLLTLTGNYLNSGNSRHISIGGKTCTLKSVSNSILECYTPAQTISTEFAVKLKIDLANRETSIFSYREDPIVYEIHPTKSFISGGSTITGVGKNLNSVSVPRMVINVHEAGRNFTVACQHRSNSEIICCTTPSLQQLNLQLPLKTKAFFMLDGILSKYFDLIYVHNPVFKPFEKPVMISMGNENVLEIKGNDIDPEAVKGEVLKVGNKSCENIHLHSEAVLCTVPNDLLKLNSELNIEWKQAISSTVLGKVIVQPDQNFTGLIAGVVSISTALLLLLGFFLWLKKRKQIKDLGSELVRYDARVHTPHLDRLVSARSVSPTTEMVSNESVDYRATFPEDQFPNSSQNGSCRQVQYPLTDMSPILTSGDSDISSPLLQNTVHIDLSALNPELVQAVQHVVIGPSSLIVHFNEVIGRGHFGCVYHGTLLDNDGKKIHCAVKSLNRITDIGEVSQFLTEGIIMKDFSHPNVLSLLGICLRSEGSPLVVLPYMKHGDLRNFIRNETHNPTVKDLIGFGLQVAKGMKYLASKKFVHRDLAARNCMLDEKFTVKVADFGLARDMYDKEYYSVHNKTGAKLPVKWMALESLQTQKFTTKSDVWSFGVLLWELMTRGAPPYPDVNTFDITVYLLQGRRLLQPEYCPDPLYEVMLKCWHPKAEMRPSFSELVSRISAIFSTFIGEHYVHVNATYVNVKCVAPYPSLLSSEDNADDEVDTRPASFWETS

IC50 [nM] | Structure (SMILES)
< 100 | CCn1cc(-n2ccc(=O)c(Cc3cccc(-c4ncc(OCC(F)F)cn4)c3)n2)cn1 [Example 306, 3-{3-[5-(2,2-difluoroethoxy)pyrimidin-2-yl]benzyl}-1-(1-ethyl-1H-pyrazol-4-yl)pyridazin-4(1H)-one]
< 100 | CCOC(=O)Nc1cccc(Cc2nn(-c3cccc(C#N)c3)ccc2=O)c1 [Example 135, ethyl (3-{[1-(3-cyanophenyl)-4-oxo-1,4-dihydropyridazin-3-yl]methyl}phenyl)carbamate]
100 to 1000 | CCOC(=O)Nc1cccc(Cc2nn(-c3cnn(CCN)c3)ccc2=O)c1 [Example 647, Ethyl [3-({1-[1-(2-aminoethyl)-1H-pyrazol-4-yl]-4-oxo-1,4-dihydropyridazin-3-yl}methyl)phenyl]carbamate]
< 100 | Cn1cc(-n2ccc(=O)c(Cc3cccc(NC(=O)OCCC4CCNCC4)c3)n2)cn1 [Example 624, 2-piperidin-4-ylethyl (3-{[1-(1-methyl-1H-pyrazol-4-yl)-4-oxo-1,4-dihydropyridazin-3-yl]methyl}phenyl)carbamate]
< 100 | Cn1cc(-n2ccc(=O)c(Cc3cccc(NC(=O)OCCN4CCOCC4)c3)n2)cn1 [Example 531]
< 100 | CC(c1cccc(-c2ncc(OC3COC3)cn2)c1)c1nn(-c2cnn(C)c2)ccc1=O (single isomer, unassigned) [Example 216, 1-(1-methyl-1H-pyrazol-4-yl)-3-((1R or S)-1-{3-[5-(oxetan-3-yloxy)pyrimidin-2-yl]phenyl}ethyl)pyridazin-4(1H)-one]
< 100 | Cn1cc(-n2ccc(=O)c(Cc3cccc(-c4ncn(CC5CCOC5)n4)c3)n2)cn1 (racemic) [Example 79, rac-1-(1-methyl-1H-pyrazol-4-yl)-3-{3-[1-(tetrahydrofuran-3-ylmethyl)-1H-1,2,4-triazol-3-yl]benzyl}pyridazin-4(1H)-one]
< 100 | C=C(C)c1cnc(-c2cccc(Cc3nn(-c4cnn(C)c4)ccc3=O)c2)nc1 [Example 399, 1-(1-methyl-1H-pyrazol-4-yl)-3-{3-[5-(prop-1-en-2-yl)pyrimidin-2-yl]benzyl}pyridazin-4(1H)-one]
< 100 | CCCOC(=O)Nc1cccc(Cc2nn(-c3cc(Cl)nc(Cl)c3)ccc2=O)c1 [Example 56, propyl (3-{[1-(2,6-dichloropyridin-4-yl)-4-oxo-1,4-dihydropyridazin-3-yl]methyl}phenyl)carbamate]
< 100 | CC(C)COC(=O)Nc1cccc(Cc2nn(-c3ccc(-c4cn[nH]c4)cc3)ccc2=O)c1 [Example 731, 2-methylpropyl [3-({4-oxo-1-[4-(1H-pyrazol-4-yl)phenyl]-1,4-dihydropyridazin-3-yl}methyl)phenyl] carbamate]
< 100 | Cn1cc(-c2cnc(-c3cccc(Cc4nn(-c5cc(F)cc(C#N)c5)ccc4=O)c3)nc2)cn1 [Example 155, 3-fluoro-5-[3-{3-[5-(1-methyl-1H-pyrazol-4-yl)pyrimidin-2-yl]benzyl}-4-oxopyridazin-1(4H)-yl]benzonitrile]
< 100 | Cn1cc(-n2ccc(=O)c(Cc3cccc(-c4ncc(Br)cn4)c3)n2)cn1 [Example 465, 3-[3-(5-Bromopyrimidin-2-yl)benzyl]-1-(1-methyl-1H-pyrazol-4-yl)pyridazin-4(1H)-one]
< 100 | Cn1cc(-n2ccc(=O)c(Cc3cccc(-c4ncc(CCc5ccccc5)cn4)c3)n2)cn1 [Example 397, 1-(1-methyl-1H-pyrazol-4-yl)-3-{3-[5-(2-phenylethyl)pyrimidin-2-yl]benzyl}pyridazin-4(1H)-one]
< 100 | CCCNc1cnc(-c2cccc(Cc3nn(-c4cnn(C)c4)ccc3=O)c2)nc1 [Example 451, 1-(1-Methyl-1H-pyrazol-4-yl)-3-{3-[5-(propylamino)pyrimidin-2-yl]benzyl}pyridazin-4(1H)-one]
100 to 1000 | COc1ccnc2ccc(Cc3nn(-c4cnn(C)c4)ccc3=O)cc12 [Example 142, 3-[(4-methoxyquinolin-6-yl)methyl]-1-(1-methyl-1H-pyrazol-4-yl)pyridazin-4(1H)-one]
< 100 | Cn1cc(-n2ccc(=O)c(Cc3cccc(-c4ncn(CC(F)(F)CN5CCOCC5)n4)c3)n2)cn1 [Example 712, 3-{3-[1-(2,2-difluoro-3-morpholin-4-ylpropyl)-1H-1,2,4-triazol-3-yl]benzyl}-1-(1-methyl-1H-pyrazol-4-yl)pyridazin-4(1H)-one]
< 100 | Cn1cc(-n2ccc(=O)c(Cc3cccc(-c4ncc(OCC(O)CN5CCOCC5)cn4)c3)n2)cn1 (racemic) [Example 368, rac-3-{3-[5-(2-hydroxy-3-morpholin-4-ylpropoxy)pyrimidin-2-yl]benzyl}-1-(1-methyl-1H-pyrazol-4-yl)pyridazin-4(1H)-one]
< 100 | CC(C)COC(=O)Nc1cccc(Cc2nn(-c3cnn(CCC(=O)N4CCOCC4)c3)ccc2=O)c1 [Example 703, 2-methylpropyl [3-({1-[1-(3-morpholin-4-yl-3-oxopropyl-1H-pyrazol-4-yl]-4-oxo-1,4-dihydropyridazin-3-yl}methyl)phenyl] carbamate]
< 100 | O=C(Nc1cccc(Cc2nn(-c3cc(F)cc(F)c3)ccc2=O)c1)OCC1COCCO1 (racemic) [Example 520, rac-1,4-dioxan-2-ylmethyl (3-{[1-(3,5-difluorophenyl)-4-oxo-1,4-dihydropyridazin-3-yl]methyl}phenyl)carbamate]
< 100 | CCOc1cnc(-c2cc(F)cc(Cc3nn(-c4cnn(C)c4)ccc3=O)c2)nc1 [Example 120, 3-[3-(5-ethoxypyrimidin-2-yl)-5-fluorobenzyl]-1-(1-methyl-1H-pyrazol-4-yl)pyridazin-4(1H)-one]
< 100 | Cc1cc(COc2cnc(-c3cccc(Cc4nn(-c5cnn(C)c5)ccc4=O)c3)nc2)no1 [Example 285, 3-(3-{5-[(5-methylisoxazol-3-yl)methoxy]pyrimidin-2-yl}benzyl)-1-(1-methyl-1H-pyrazol-4-yl)pyridazin-4(1H)-one]
< 100 | Cn1cc(-n2ccc(=O)c(Cc3cccc(-c4ncc(CCCO)cn4)c3)n2)cn1 [Example 395, 3-{3-[5-(3-hydroxypropyl)pyrimidin-2-yl]benzyl}-1-(1-methyl-1H-pyrazol-4-yl)pyridazin-4(1H)-one]
< 100 | CN(C)CCCc1cnc(-c2cccc(Cc3nn(-c4cnn(C)c4)ccc3=O)c2)nc1 [Example 438, 3-(3-{5-[3-(dimethylamino)propyl]pyrimidin-2-yl}benzyl)-1-(1-methyl-1H-pyrazol-4-yl)pyridazin-4(1H)-one]
< 100 | CCOCCOc1cnc(-c2cccc(Cc3nn(-c4ccc(F)c(F)c4)ccc3=O)c2)nc1 [Example 321, 1-(3,4-difluorophenyl)-3-{3-[5-(2-ethoxyethoxy)pyrimidin-2-yl]benzyl}pyridazin-4(1H)-one]
< 100 | O=c1ccn(-c2ccc(F)c(F)c2)nc1Cc1cccc(-c2ncc(OCC3COCCO3)cn2)c1 (single isomer, unassigned) [Example 345, 1-(3,4-difluorophenyl)-3-(3-{5-[(2R or S)-1,4-dioxan-2-ylmethoxy]pyrimidin-2-yl}benzyl)pyridazin-4(1H)-one]

Reference: patent US20120264735A1 (priority 2009, published 2012)
